Patent US20230019491A1, “PYRIMIDINE TBK/IKKe INHIBITOR COMPOUNDS AND USES THEREOF” (Merck Patent GmbH, priority 2017, published 2023)

Tests used:
IKKε = target: T1, IKKε (Homo sapiens, UniProt Q14164); assay: IKKε biochemical assay; settings: 10 point 1:4 dose response, 30 uM top concentration, 90 min at 25° C., LabChip EZ Reader II; read-out: IKKε_IC50
T1 sequence (Q14164 1-716): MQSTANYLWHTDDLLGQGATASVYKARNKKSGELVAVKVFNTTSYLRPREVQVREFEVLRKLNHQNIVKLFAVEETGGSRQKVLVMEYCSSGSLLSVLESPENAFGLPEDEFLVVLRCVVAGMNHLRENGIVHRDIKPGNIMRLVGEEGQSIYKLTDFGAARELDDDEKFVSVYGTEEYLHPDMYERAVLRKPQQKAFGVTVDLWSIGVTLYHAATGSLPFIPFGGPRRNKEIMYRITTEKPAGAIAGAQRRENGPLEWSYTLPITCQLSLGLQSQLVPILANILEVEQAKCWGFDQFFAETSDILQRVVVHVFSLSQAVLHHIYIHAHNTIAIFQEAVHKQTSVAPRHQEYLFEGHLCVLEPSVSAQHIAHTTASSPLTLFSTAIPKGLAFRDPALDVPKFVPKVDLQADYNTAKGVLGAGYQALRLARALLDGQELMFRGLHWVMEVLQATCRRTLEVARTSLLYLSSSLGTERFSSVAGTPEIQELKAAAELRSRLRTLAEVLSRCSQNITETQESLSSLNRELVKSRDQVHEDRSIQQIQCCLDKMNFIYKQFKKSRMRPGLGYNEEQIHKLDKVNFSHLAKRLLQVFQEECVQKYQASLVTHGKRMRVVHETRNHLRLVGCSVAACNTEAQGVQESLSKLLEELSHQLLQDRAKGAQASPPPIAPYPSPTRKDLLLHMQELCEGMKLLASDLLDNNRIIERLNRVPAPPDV
Description: (§1) Test compounds were transferred into Labcyte polypropylene 384 well plates (P055-25) and diluted to 3 mM using DMSO. […] 100 uM of a reference compound (1 uM final high concentration). Backfilling was performed if necessary so that all wells contain 1% DMSO final:
(§2) add 75 nl DMSO/well into columns 1, 2 and 24 using Labcyte Echo. add 75 nl 1.0 mM staurosporine/well into column 23 using Labcyte Echo (10 uM final) add 4.5 ul enzyme/well using multidrop dispenser add 3 ul substrate/well using multidrop dispenser incubate at 25° C. for 90 min. add 7.5 ul 2× stop buffer read on labchip ez reader II using IKKε.
(§3) Raw data files were opened in the Caliper LabChip Reviewer program (Version 3.0.265.0 SP2) and peak assignments were adjusted to reflect “substrate first” with the software's post-run analysis options. A spline-fit baseline was applied using the software's analysis algorithm.

TBK1 = target: T2, TBK1 (Homo sapiens, UniProt Q9UHD2); assay: TBK biochemical assay; settings: 10 point 1:4 dose response, 30 uM top concentration, 90 min at 25° C., LabChip EZ Reader II; read-out: TBK1_IC50
T2 sequence (Q9UHD2 1-729): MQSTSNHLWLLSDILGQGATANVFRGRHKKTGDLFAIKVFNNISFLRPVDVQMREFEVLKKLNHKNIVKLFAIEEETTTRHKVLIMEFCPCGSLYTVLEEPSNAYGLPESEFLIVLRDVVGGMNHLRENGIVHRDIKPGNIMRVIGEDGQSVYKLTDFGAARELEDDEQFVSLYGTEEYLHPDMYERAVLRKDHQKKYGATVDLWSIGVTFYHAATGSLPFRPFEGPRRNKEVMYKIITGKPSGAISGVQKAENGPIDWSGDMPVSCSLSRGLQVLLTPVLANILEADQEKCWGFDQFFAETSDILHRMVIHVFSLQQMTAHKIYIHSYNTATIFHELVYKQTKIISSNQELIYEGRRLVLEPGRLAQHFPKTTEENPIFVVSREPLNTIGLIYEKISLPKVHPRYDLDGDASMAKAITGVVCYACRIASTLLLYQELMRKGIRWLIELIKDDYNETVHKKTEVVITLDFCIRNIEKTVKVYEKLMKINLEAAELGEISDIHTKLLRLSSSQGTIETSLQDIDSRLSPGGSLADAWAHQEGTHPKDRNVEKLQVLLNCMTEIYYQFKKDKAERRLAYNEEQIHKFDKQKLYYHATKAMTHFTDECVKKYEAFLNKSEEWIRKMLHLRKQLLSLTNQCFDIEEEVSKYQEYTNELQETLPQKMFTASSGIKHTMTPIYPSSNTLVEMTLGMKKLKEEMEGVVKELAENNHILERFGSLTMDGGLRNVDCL
Description: as §1
as §2, with “C. in Heidolph incubator” for “C.”, “buffer using multidrop dispenser” for “buffer”, “TBK1.job” for “IKKε.”
as §3

SMILES	IC50 (IKKε)	IC50 (TBK1)
C[C@@H](O)C(=O)N1CC[C@H](Oc2ccc(-c3ccnc(Nc4ccc(N5CCN(C6COC6)CC5)cc4)n3)cc2C#N)C(F)(F)C1 [Example 142, 2-[[(4S)-3,3-difluoro-1-[(2R)-2-hydroxypropanoyl]piperidin-4-yl]oxy]-5-[2-([4-[4-(oxetan-3-yl)piperazin-1-yl]phenyl]amino)pyrimidin-4-yl]benzonitrile]	< 100 nM	< 100 nM
COc1nc(C(=O)N(C)C)ccc1Nc1nccc(-c2ccc(NC3CCOCC3)c(C#N)c2)n1 [Example 62, 5-[(4-[3-cyano-4-[(oxan-4-yl)amino]phenyl]pyrimidin-2-yl)amino]-6-methoxy-N,N-dimethylpyridine-2-carboxamide]	100 to 1000 nM	< 100 nM
COc1cc(Nc2nccc(-c3ccc(OC4CCN(C(=O)[C@H](C)O)CC4(F)F)c(C#N)c3)n2)cnc1N1CCN(C2COC2)CC1 (stereo partly drawn) [Example 323, 2-([3,3-difluoro-1-[(2S)-2-hydroxypropanoyl]piperidin-4-yl]oxy)-5-[2-([5-methoxy-6-[4-(oxetan-3-yl)piperazin-1-yl]pyridin-3-yl]amino)pyrimidin-4-yl]benzonitrile]	< 100 nM	< 100 nM
N#Cc1cc(-c2ccnc(Nc3ccccn3)n2)ccc1OC1CCN(C(=O)CO)CC1(F)F (centres unmarked) [Example 220, 2-[3,3-Difluoro-1-(2-hydroxy-acetyl)-piperidin-4-yloxy]-5-[2-(pyridin-2-ylamino)-pyrimidin-4-yl]-benzonitrile]	< 100 nM	< 100 nM
COc1nc(Nc2nccc(-c3ccc(O[C@H]4CCN(C(=O)c5cnn[nH]5)C[C@H]4F)c(C#N)c3)n2)ccc1N1CCN(C2COC2)CC1 [Example 115, 2-[[(3R,4S)-3-fluoro-1-[(1H-1,2,3-triazol-5-yl)carbonyl]piperidin-4-yl]oxy]-5-[2-([6-methoxy-5-[4-(oxetan-3-yl)piperazin-1-yl]pyridin-2-yl]amino)pyrimidin-4-yl]benzonitrile]	< 100 nM	< 100 nM
COc1nc(Nc2nccc(-c3ccc(O[C@H]4CCNC[C@H]4F)c(C#N)c3)n2)ccc1C(=O)N(C)C [Example 74, 6-[[4-(3-cyano-4-[[(3R,4S)-3-fluoropiperidin-4-yl]oxy]phenyl)pyrimidin-2-yl]amino]-2-methoxy-N,N-dimethylpyridine-3-carboxamide]	< 100 nM	< 100 nM
COc1nc(Nc2nccc(-c3ccc(OC4CCN(C(=O)C(C)O)CC4(F)F)c(C#N)c3)n2)ccc1C1CCN(C)CC1 (centres unmarked) [Example 146, 2-[[3,3-difluoro-1-(2-hydroxypropanoyl)piperidin-4-yl]oxy]-5-(2-[[6-methoxy-5-(1-methylpiperidin-4-yl)pyridin-2-yl]amino]pyrimidin-4-yl)benzonitrile]	< 100 nM	< 100 nM
CC(O)C(=O)N1CCC(Oc2ccc(-c3nc(Nc4ccc(N5CCN(C6COC6)CC5)cc4)ncc3F)cc2C#N)C(F)(F)C1 (centres unmarked) [Example 299, 2-{[3,3-difluoro-1-(2-hydroxypropanoyl)piperidin-4-yl]oxy}-5-[5-fluoro-2-({4-[4-(oxetan-3-yl)piperazin-1-yl]phenyl}amino)pyrimidin-4-yl]benzonitrile]	< 100 nM	< 100 nM
COc1nc(Nc2nccc(-c3ccc(OC4CCOCC4)c(C#N)c3)n2)ccc1C(=O)N1CC2COCC2C1 (centres unmarked) [Example 12, 5-(2-[[5-([hexahydro-1H-furo[3,4-c]pyrol-5-yl]carbonyl)-6-methoxypyridin-2-yl]amino]pyrimidin-4-yl)-2-(oxan-4-yloxy)benzonitrile]	< 100 nM	< 100 nM
COc1nc(Nc2nccc(-c3ccc(OC4CCN(C(=O)C(C)C#N)CC4(F)F)c(C#N)c3)n2)ccc1N1CCN(C2COC2)CC1 (centres unmarked) [Example 251, 2-[1-(2-Cyano-2-methyl-acetyl)-33-difluoro-piperidin-4-yloxy]-5-{2-[6-methoxy-5-(4-oxetan-3-yl-piperazin-1-yl)-pyridin-2-ylamino]-pyrimidin-4-yl}-benzonitrile]	< 100 nM	< 100 nM
